Data published in paper PMC3940079 (International Journal for Parasitology: Drugs and Drug …, 2013).

Assays:
[1] = target: T1, P2 aminopurine transporter (TbAT1) (Trypanosoma brucei, UniProt Q9Y0I0); experiment: inhibition of […] [3H]-adenosine uptake; type: cell-based
T1 sequence (Q9Y0I0 1-463): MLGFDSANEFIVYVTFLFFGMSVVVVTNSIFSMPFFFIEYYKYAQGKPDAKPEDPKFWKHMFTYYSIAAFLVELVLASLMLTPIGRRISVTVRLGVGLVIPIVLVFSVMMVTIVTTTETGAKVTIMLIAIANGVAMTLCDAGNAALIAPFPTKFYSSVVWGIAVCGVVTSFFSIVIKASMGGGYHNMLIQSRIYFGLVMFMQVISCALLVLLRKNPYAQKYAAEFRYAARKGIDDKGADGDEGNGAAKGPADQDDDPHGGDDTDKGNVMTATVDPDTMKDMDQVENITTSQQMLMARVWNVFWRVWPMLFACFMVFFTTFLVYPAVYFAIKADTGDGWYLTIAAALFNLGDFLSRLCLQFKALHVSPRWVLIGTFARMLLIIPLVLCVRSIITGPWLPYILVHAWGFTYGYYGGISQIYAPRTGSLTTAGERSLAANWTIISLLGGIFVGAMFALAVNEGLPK

[2] = target: H2 nucleobase transporter; experiment: inhibition of […] [3H]-hypoxanthine uptake in bloodstream-form trypanosomes; type: cell-based, Trypanosoma brucei brucei
[3] = target: H3 nucleobase transporter; experiment: as above; type: cell-based, Trypanosoma brucei brucei

Ki [1]: 75.3 ± 5.7 µM
Ki [2]: 230 ± 35 µM
Ki [3]: 105 ± 24 µM
Compound: Nc1ncnc2n[nH]cc12 [aminopurinol]
